Tests used:
ovarian cancer cell = conditions: in vitro study; cited from earlier work
[1] = test system: A2780 epithelial ovarian cancer cells; experiment: RNA sequencing and differential gene analysis of chip-derived tumors; type: cell-based, human; conditions: RNA-seq of chip-derived tumors
Protocol: Validation of cancer cell-platelet-drug crosstalk within OTME-Chip with next generation RNA-sequencing. It was recently shown that a collaboration of organ-chip technology with RNA-seq analysis is a powerful tool to validate preclinical studies and derive unbiased clinical predictions. Therefore, to solidify insights into the platelet-tumor signaling nexus and the therapeutic effect of Revacept, transcriptomic profiling was performed of different chip-derived tumors through RNA sequencing. Through RNA sequencing and differential gene analysis, expression of 12452 genes in the OTME-Chip relative to Control-Chip was detected. Similarly, expression of 5566, 6909 and 3821 genes in the Cx-OTME-Chip, CxRx-OTME-Chip and KO-OTME-Chip respectively relative to Control-Chip was detected. […]
RNA sequencing and analysis. […] Isolated mRNA samples were then analyzed using the NextSeq 500 platform (Illumina) and sample preparation was performed using TruSeqRNA sample preparation with paired-end read length of 2×75 bases (Molecular Genomics Workspace, Texas A&M University, College Station, TX). Then HISAT2 was used to splice align the reads to latest ENSEMBL-release-102 human genome/transcriptome (GRCh38.p13). […] Differentially expressed genes were then evaluated for all groups using DESeq2 package in R®. […]

[2] = test system: metastasis and cell proliferation genes; experiment: Transcriptional analysis (qRT-PCR) of cancer cells from OTME-Chip; type: cell-based, human; conditions: cancer cells obtained from the chips, over time; Revacept 40 μg/mL, cisplatin 6 μg/mL
Protocol: (§1) Drugs. Cisplatin (Fisher Scientific, USA) and Revacept (Advancecor GamBH, Germany) were dissolved in DMSO and PBS/4% Mannitol/1% Sucrose respectively to prepare master stocks (1 mg/mL). These were further diluted in RMPI-1640 media to obtain respective working concentrations of cisplatin (6 μg mL^−1) and Revacept (40 μg mL^−1). They were perfused into the chip tumor chamber individually or in combination in presence or absence of extravasated platelets.
Quantitative real-time PCR. Cancer cell total RNA was isolated using the Arcturus PicoPure RNA Isolation Kit specifically (Thermofisher Scientific, CAS-KIT0214) designed to recover high-quality RNA consistently from fewer cells. Cells isolated from the Chip were washed in prescribed in buffer (0.9 mL of 1×PBS/10% BSA; 0.1 mL of 0.5 M EDTA) and total cellular RNA was isolated by using the manufacturer's protocol. […] The cDNA prepared was further used for the subsequent quantitative qRT-PCR reactions using SyBR green master mix (Applied Biosystems™ SYBR™ Green select PCR Master Mix) and gene specific primers. […] Gene expression was analyzed by quantifying the relative fold changes in mRNA levels of individual genes using comparative Cycle Threshold (CT)/ACT method.

[3] = test system: A2780 epithelial ovarian cancer cells; experiment: Cell cycle analysis of cancer cells from OTME-Chip; type: cell-based, human; conditions: OTME-Chip with extravasated platelets, compared to untreated controls; Revacept 40 μg/mL, cisplatin 6 μg/mL
Protocol: as §1
Cell cycle analysis. Cancer cells isolated via Accutase™ treatment from the chip were fixed in 70% ethanol at […] for 6 hr and permeabilized. Cells were then incubated with 100 μg mL^−1 Propidium Iodide (PI) (Sigma-Aldrich), and 50 μg mL^−1 ribonuclease A in the dark for 30 min at 37° C. Flow cytometry was performed on a BD Accuri C6 flow cytometer (BD Biosciences, USA) and cell cycle analysis was done using CellQuest Pro software.

[4] = test system: A2780 epithelial ovarian cancer cells; experiment: Cancer cell ECM invasion in OTME-Chip (A2780); type: cell-based, human; conditions: OTME-Chip with extravasated platelets, analyzed for three days; Revacept 40 μg/mL, cisplatin 6 μg/mL
Source text: OTME-Chip predicts that pharmaceutical inhibition of GPVI arrests metastasis and supports chemotherapy. The potential consequences of pharmaceutical targeting of GPVI on platelets in cancer were then investigated. There are currently no FDA-approved anti-GPVI drugs in the market. However, Revacept is an inhibitor that has been successfully evaluated against collagen-mediated platelet adhesion in phase I clinical trials of atherosclerosis and stroke. Revacept inhibited the platelet GPVI and tumor galectin-3 interaction in a colon carcinoma cell line. This drug is a fusion protein consisting of the Fc part of human IgG, a short hinge region, a specific linker sequence, and the extracellular part of human platelet GPVI with a molecular mass of 150 kDa. […] Thereafter, these chips were analyzed for three days (FIG. 7). […]
Cell invasion. […] Invasion dynamics of live stained cancer cells (green) into the Chip ECM chamber hydrogel was visualized using fluorescence microscopy (Zeiss Axio Observer; LD Plan Neofluar 10×, NA 0.4). […] Images were analyzed and processed using software ZEN 2.3 lite (ZEISS). […] The ECM invasion of cancer cells was calculated as the ratio of area occupied by invaded cancer cells in ECM chamber vs. the total area of ECM chamber.

[5] = test system: A2780 epithelial ovarian cancer cells; experiment: Cancer cell proliferation assay (Ki67) in OTME-Chip; type: cell-based, human; conditions: OTME-Chip with extravasated platelets; Revacept 40 μg/mL, cisplatin 6 μg/mL
Protocol: as §1
Cancer cell proliferation assay. Isolated cancer cells were immunostained with monoclonal anti-Ki67 antibody-Alexa Fluor488 conjugate (Abcam). The fluorescence intensity was then measured with a plate reader using excitation/emission wavelengths of 488/519 nm. Platelet free cancer cells obtained from other chips during similar time points were kept as control. Proliferation rate was measured as a percentage ratio of fluorescent intensities of experimental and control cells.

[6] = test system: growth factors (PDGF, VEGF, and TGFβ) and cytokines (IL-8, MMP9, and IL-6); experiment: Growth factors and cytokines in OTME-Chip tumor chamber effluents (multiplex); type: cell-based, human; conditions: Revacept 40 μg/mL, cisplatin 6 μg/mL
Protocol: as §1
Growth factors and cytokines. Growth factors and cytokines present in OTME-Chip tumor chamber media effluents were measured using multiplex (xMAP) magnetic bead-based technology provided by Millipore. Media effluents collected from tumor chamber during different time points were analyzed for cytokines and growth factors using MILLIPLEX® MAP Human cytokine/chemokine magnetic bead panel kit (Millipore, CAS-HCYTOMAG-60K) by following previously established protocols. Assays were run in a pre-calibrated Luminex MAPGPIX reader. The mean fluorescent intensity (MFI) of the magnetic beads correlating with the concentration (pg/mL) of respective cytokines and growth factors was calculated using xPONENT 4.2 software and data analysis was done with Milliplex Analyst 5.1 software (Millipore). The concentration of cytokines obtained in each sample was normalized with respect to controls and the assays were run in triplicate. […]

SMILES	platelet-induced ovarian cancer cell invasion (ovarian cancer cell)	expression of genes of signaling pathways (NFκB, TGFβ/Smad, Hippo, MAPK, mTOR, Notch, PI3-Akt, Wnt), volcano plots [1]	expression of these pathways, heatmaps of expression profiles ([1]; different chip conditions)	platelet-induced upregulation of metastasis and cell proliferation genes [2]	G2/M phase in cancer cells [3]	ECM invasion of cancer cells / tumor invasiveness [4]	proliferation rate of the cancer cells [5]	concentration of growth factors (PDGF, VEGF, TGFβ) and cytokines (IL-8, MMP9, IL-6) [6]
CC(=O)Oc1ccccc1C(=O)O [aspirin, acetylsalicylic acid]	attenuated	–	–	–	–	–	–	–
N.N.[Cl][Pt][Cl] [cisplatin, reference compound]	–	reduced	downregulated	altered overtime modestly	modest effect	modest effect	modest effect	modest effect

Source: patent US20240327768A1, “MICROFLUIDIC DEVICE MIMICKING TUMOR MICROENVIRONMENT” (The Texas A&M University System, priority 2021, published 2024)
